Each sequence was assayed on CD8+ T cells from PBMC (assay: IFN-γ ELISpot, PBMC-derived in vitro expanded CD8+ T cell lines). Settings: not given.
Type: cell-based, human
Set-up: key to T cell recognition by PBMC from a T1D donor: E: T cell recognition by PBMC from a T1D donor was tested and verified; see Figure 5

Sequence | IFN-γ ELISpot response of expanded CD8+ T cells
TLDGSLHAV [peptide 79, 11] | Responses

Same assay, conditions: A2 Set Peptides; PBMC T cell lines; responding donors/donors tested

Sequence | T1D Donor T cell response | non-T1D Donor T cell response
AILETAPKEV [compound 129, 17] | 0/4 | 0/2
ALAEEVEQV [compound 87, 12] | 0/4 | 0/2
ALANHLIKV [compound 96, 13] | 2/4 | 0/2
ALAPAPPQV [compound 127, 16] | 0/4 | 0/2
ALDGPPIKV [compound 80, 11] | 1/5 | 0/2
ALKPLAAAL [compound 138, 18] | 0/4 | 0/2
ALLDQALSNA [compound 111, 15] | 0/4 | 0/2
ALLDVTPKAV [compound 140, 18] | 0/4 | 0/2
ALLETVNRL [compound 99, 13] | 0/5 | 0/2
ALMEAIHSA [compound 93, 13] | 1/4 | 0/2
ALYDNVEKL [compound 89, 12] | 0/4 | 0/2
AMFDQSQIQEF [compound 116, 15] | 1/4 | 0/2
AQIALQPAL [compound 131, 17] | 0/4 | 0/2
AQLENPAAV [compound 97, 13] | 0/4 | 0/2
AQTEVIATL [compound 94] | 0/5 | 0/2
ELNPKILAL [compound 100, 13] | 0/4 | 0/2
FIASKGVKLV [compound 86, 12] | 0/5 | 0/2
FLIRESETL [compound 109, 14] | 1/4 | 0/2
FLKEPALNEA [compound 124, 16] | 0/4 | 0/2
GLDDIKDLKV [peptide 112, 15] | 3/4 | 0/2
GLDRLNVTV [peptide 101, 14] | 4/4 | 0/2

Sequence | T1D Donor T cell response | non-T1D Donor T cell response
HLANIVERV [compound 141, 18] | 0/4 | 0/2
HLKALTSEL [compound 114, 15] | 0/5 | 0/2
HLMDQPLSV [compound 108, 14] | 0/4 | 0/2
HLTPSPVPV [compound 121] | 0/5 | 0/2
HQNQLLSSL [compound 143, 18] | 0/4 | 0/2
KLIQKNLAT [compound 130, 17] | 0/4 | 0/2
KLLDPEDVAVQL [compound 142, 18] | 0/4 | 0/2
KLQELNYNL [compound 132, 17] | 0/4 | 0/2
KLTENLVAL [compound 92, 12] | 0/5 | 0/2
KQFPEVIKY [compound 90, 12] | 0/4 | 0/2
KQMEQISQF [compound 137, 18] | 0/4 | 0/2
KVDEAVAVL [compound 83, 11] | 0/4 | 0/2
KVIEINPYL [compound 123, 16] | 0/5 | 0/2
LIQDRVAEV [compound 106, 14] | 1/5 | 0/2
LLDEEISRV [compound 84, 11] | 0/4 | 0/2
LLDVPTAAV [compound 81, 11] | 1/5 | 0/2
LLSDTVQHL [compound 136, 17] | 0/4 | 0/2
LQNPDLVSL [compound 119, 16] | 0/4 | 0/2
QLMAEKLQL [compound 115, 15] | 0/4 | 0/2
QLSDVAEKL [compound 128, 17] | 0/4 | 0/2
QQQQKIIAL [compound 91, 12] | 0/5 | 0/2

Sequence | T1D Donor T cell response | non-T1D Donor T cell response
RLDDLKMTV [compound 82, 11] | 1/5 | 0/2
RLQDELVTL [compound 110, 15] | 0/4 | 0/2
RLSDAQIYV [compound 103, 14] | 0/4 | 0/2
RLSDVQIYV [compound 102, 14] | 1/4 | 0/2
RLYDPTEGMVSV [compound 85, 12] | 0/4 | 0/2
RVAEVQQVL [compound 107, 14] | 0/5 | 0/2
RVIGTLEEV [compound 125, 16] | 0/4 | 0/2
RYLEQLHQL [compound 135, 17] | 0/4 | 0/2
SLAEGLRTV [compound 120, 16] | 0/4 | 0/2
SLIGHLQTL [compound 95, 13] | 1/4 | 0/2
SLLQGSPHL [compound 122, 16] | 0/4 | 0/2
TLDGSLHAV [peptide 79, 11] | 1/5 | 0/2
TLVEAIKQV [compound 113, 15] |  | 0/2
VIANEIEKV [compound 88, 12] | 0/5 | 0/2
VLAPRVLRA [compound 126, 16] | 0/4 | 0/2
VLHEGTNFV [compound 104, 14] | 0/4 | 0/2
YINEKNVAL [compound 105, 14] | 0/4 | 0/2
YLHSQVVSV [compound 139, 18] | 0/4 | 0/2
YLKHRLIVV [compound 134, 17] | 0/4 | 0/2

Same assay, conditions: HPAP-A2 Pool Peptides; PBMC T cell lines; responding donors/donors tested

Sequence | T1D Donor T cell response | non-T1D Donor T cell response
ALDGPPIKV [compound 164] | 0/4 | 0/4
ALKPLAAAL [compound 169] | 0/4 | 0/4
ALLETVNRL [compound 162] | 0/4 | 0/4
DVIEKIRYV [compound 159] | 0/4 | 0/4
FLIEEIERL [compound 161] | 0/4 | 0/4
FTNHFLVEL [compound 165] | 0/4 | 0/4
IIVDIFHGL [compound 170] | 0/4 | 0/4
KLLESFKI [compound 160] | 0/4 | 0/4
KQFPEVIKY [compound 157] | 0/5 | 0/4
KVIEINPYL [compound 166] | 0/4 | 0/4
NLKEAIETI [compound 163] | 0/4 | 0/4
RVVGTLHLL [compound 168] | 0/4 | 0/4
TAISRIYTV [compound 158] | 0/4 | 0/4
VLAFLVHEL [compound 156] | 1/5 | 0/4

Same assay, conditions: MHC-I peptides; superscript E on the peptide; F = verified with C1R-A2 cells

Sequence | T cell recognition by PBMC from a T1D donor
ALANHLIKV | ALANHLIKV ^ E
ALMEAIHSA | ALMEAIHSA ^ E
AMFDQSQIQEF | AMFDQSQIQEF ^E, F
GLDDIKDLKV | GLDDIKDLKV ^ E
GLDRLNVTV | GLDRLNVTV ^ E
RLDDLKMTV | RLDDLKMTV ^ E
RLSDVQIYV | RLSDVQIYV ^ E
RSAAVLALL | RSAAVLALL ^E,F
SLIGHLQTL | SLIGHLQTL ^ E
TLDGSLHAV | TLDGSLHAV ^ E

Same assay, conditions: PTM and unmodified native Pool Peptides (pool PTM 1), 9-mer peptides; PBMC T cell lines; responding donors/donors tested

Sequence | T1D Donor T cell response | non-T1D Donor T cell response
QADFAIEAL [compound 150, non-modified native peptide, pool PTM A2] | 0/4 | 0/3

Same assay, conditions: SEC (Secretory) A2 Peptides Set; PBMC T cell lines; responding donors/donors tested

Sequence | T1D Donor T cell response
GSHLVEALY [compound 172, secretory hormone eluted peptide, pool SEC A2] | 0/4
KEFIAWLV [compound 174, secretory hormone eluted peptide, pool SEC A2] | 0/4

Same assay, conditions: T1D donors, PBMC-derived lines (Figure 5J)

Sequence | Number of donors whose CD8 T cells recognized the peptide (IFN-γ ELISpot)
GLDDIKDLKV [peptide 112, 15] | three of the donors
GLDRLNVTV [peptide 101, 14] | all four donors

— article PMC12624573, “The antigen presentation landscape of cytokine-stressed human pancreatic islets” (Cell reports, 2025)
